According to patent US20260216348A1, “IRAK DEGRADATION AGENT AND USE THEREOF” (Increland, priority 2023, published 2026):

Assays:
[1] = biological target: T1, IRAK4 (Homo sapiens, UniProt Q9NWZ3); test: IRAK4 protein degradation in THP1 cells (Western blot); format: cell-based; details: THP-1 cells, 24 h
T1 construct: Effect of the Compounds on IRAK4 Protein Degradation in THP1 Cells; endogenous in cells; host or cells: THP-1 cells
T1 sequence (Q9NWZ3 1-460): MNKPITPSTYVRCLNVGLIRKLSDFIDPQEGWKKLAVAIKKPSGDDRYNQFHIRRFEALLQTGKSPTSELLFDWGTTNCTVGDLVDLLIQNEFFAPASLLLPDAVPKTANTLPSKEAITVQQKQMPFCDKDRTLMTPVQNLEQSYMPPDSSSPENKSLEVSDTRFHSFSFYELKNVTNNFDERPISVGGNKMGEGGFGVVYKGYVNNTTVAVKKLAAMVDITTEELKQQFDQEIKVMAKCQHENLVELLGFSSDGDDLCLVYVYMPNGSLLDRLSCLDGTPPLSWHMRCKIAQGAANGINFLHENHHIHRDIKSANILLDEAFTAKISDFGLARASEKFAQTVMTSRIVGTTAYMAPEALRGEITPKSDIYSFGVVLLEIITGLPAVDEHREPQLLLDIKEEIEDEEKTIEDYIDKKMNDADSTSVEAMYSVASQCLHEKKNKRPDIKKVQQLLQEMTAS
In short: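 THP-1 cells (2×10^5/well) were treated with 5-fold serial compound dilutions for 24 h at 37 °C, then lysed with proteasome/phosphatase inhibitors. IRAK4 was detected by Western blot with chemiluminescence and semi-quantified by densitometry. DC50 came from the concentration–response.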

[2] = test system: R848-induced IL-6 secretion in human peripheral blood mononuclear cells (PBMCs); test: Inhibition of R848-induced IL-6 secretion in human PBMCs (IL-6 ELISA); format: cell-based; details: PBMC, R848 2.5 μg/mL, 20 h pre-incubation, 24 h stimulation
Procedure: This experiment was carried out in RPMI 1640 medium containing 10% FBS and 1% penicillin/streptomycin, with each of the compounds at an initial test concentration of 1 μM. The compound was dissolved in DMSO to prepare a stock solution, which was serially diluted into a series of working solutions with a 4-fold concentration gradient using the culture medium and then added to a 96-well plate at 10 μL per well. PBMCs (Batch No.: P122101102C; Milecell Biotechnology Inc.) were counted and diluted to a cell concentration of 1.25×10^6 cells/mL, and then added to the aforementioned compound-containing 96-well plate at 160 μL per well. The system was mixed well and incubated in a 5% CO2 incubator at 37° C. for 20 h. Then 10 μL of R848 (final concentration: 2.5 μg/mL) was added, and the culture was continued for 24 h in a 5% CO2 incubator at 37° C. After incubation, the 96-well plate was centrifuged at 2000 rpm for 4 min. The supernatant was collected and diluted 120-fold, then detected using an IL-6 ELISA kit. The OD450 values were read, and converted to IL-6 concentrations based on a standard curve.

[3] = Metabolic stability in human liver microsome; format: in vitro ADME; details: liver microsomes, NADPH, 60 min, read-out: Human liver microsome (t1/2, min)
Procedure: Clean incubation plates T60 and NCF60 were preheated at 37° C. for 10 min. Liver microsomes were diluted to a concentration of 0.56 mg/mL with 100 mM phosphate buffer, and 445 μL of the microsome working solution (0.56 mg/mL) was transferred to the preheated incubation plates T60 and NCF60, followed by incubation of the plates T60 and NCF60 with continuous shaking at 37° C. for 10 min. After incubation, 54 μL of liver microsomes were transferred to a blank plate, 6 μL of NAPDH cofactor was added to the blank plate, and then 180 μL of quenching solution was added to the blank plate. 5 μL of the compound working solution (100 μM) was added to the microsome-containing incubation plates T60 and NCF60, and mixed thoroughly 3 times. For plate NCF60, 50 μL of buffer was added and the system was mixed thoroughly 3 times before timing was started, and the plate was incubated with shaking at 37° C. for 60 min. For the quenching plate, 180 μL of quenching solution and 6 μL of NADPH cofactor were added, and the plate was ensured to be cooled to prevent evaporation. For the T60 plate, the mixture was thoroughly mixed 3 times, and 54 μL of the mixture was immediately transferred to the quenching plate at the time point of 0 min. Then 44 μL of the NAPDH cofactor was added to the incubation plate (T60). Timing was started, and the plate was incubated with shaking at 37° C. for 60 min. At the time points of 5, 15, 30, 45, and 60 min, 180 μL of the quenching solution was added to the quenching plate respectively, mixed once, and 60 μL of sample was continuously transferred from the plate T60 to the quenching plate at each time point. For plate NCF60, after mixing once, 60 μL of the sample was transferred from incubation plate NCF60 to the quenching plate containing quenching solution at the 60-min time point. All sampling plates were shaken for 10 min, then centrifuged at 4000 rpm at 4° C. for 20 min. 80 μL of the supernatant was transferred to 240 μL of HPLC water, and mixed using a plate shaker for 10 min. Each bioanalytical plate was sealed and shaken for 10 min before LC-MS/MS analysis.

[4] = test system: LPS/IL-1β-induced IL-6 secretion in human peripheral blood mononuclear cells (PBMCs); test: Inhibition of LPS/IL-1β-induced IL-6 secretion in human PBMCs (IL-6 ELISA); format: cell-based; details: PBMC, LPS 10 ng/mL + IL-1β 20 ng/mL, 24 h pre-incubation, 20 h stimulation
In short: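 IC50 values come from fitted curves of IL-6 levels, determined by ELISA (OD450, standard curve) in supernatants diluted 200-fold. Human PBMCs received 5-fold serial compound dilutions (top 1 μM) for 24 h before a 20 h challenge with final 10 ng/mL LPS and 20 ng/mL IL-1β, 37 °C, 5% CO2.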

[5] = test system: IMQ psoriasis model; test: IMQ (imiquimod)-induced psoriasis model; format: in vivo, BALB/c mice; details: Mean ± SD, n = 7; for PASI Score d 6: Model 8.85 ± 1.66; for ΔSkin Thickness Change (μm) d 6: Model 80.95 ± 6.16
Procedure: Male BALB/c mice, aged 6-8 weeks, were randomly divided into 9 groups after 1 week of acclimatization: blank control group, imiquimod model group (IMQ group, corresponding to the model groups in FIGS. 1 and 2), clobetasol propionate cream group (CLO group), TYKI (BMS-986165) group, IRAK4 protein degrader KT-474 (from patent WO2020113233) group (100 mg/kg), and the compound of the present disclosure (at an appropriate dose), with 6-7 mice in each group. One day before modeling, the hair on the backs of the mice was removed with depilatory cream, with a depilated area of 2×2 cm^2. On the day of modeling, IMQ cream was used for modeling, and the corresponding drugs were administered intragastrically for treatment. The compound of the present disclosure (at an appropriate dose) was administered intragastrically once daily, and IMQ cream was applied to the hairless area on the back and left ear of mice 2 h after the first administration. […] The blank group and the IMQ group were administered with vehicle intragastrically twice daily (in the morning and evening), with an 8-h interval between the two intragastric administrations. At 2 h after the first intragastric administration, vaseline and IMQ cream were applied topically to the depilated back and ears of the mice, respectively. The dosage of IMQ cream administered to the depilated area on the back and the left ear was 80 mg and 10 mg, respectively, and the mice in each group were administered the cream for 5 consecutive days.
Reference was made to the Psoriasis Area and Severity Index (PASI) scoring criteria. The psoriasis, erythema, and thickness of skin lesions on the back were scored from 0 to 4 every morning from day 1 of modeling, with the scoring criteria as shown in Table 28. The 3 were added up to obtain a total score, i.e., a total PASI score. The ear thickness of the left ear of the mouse was measured using a digital vernier caliper three times every morning from day 1 of modeling, to obtain a mean value.

CN(C)c1cc2nn([C@H]3CC[C@H](CN4CCC(c5nc6cc(N7CCC(=O)NC7=O)ccc6o5)CC4)CC3)cc2cc1NC(=O)c1cnn2cccnc12 [TM-185]
DC50 [1]: 3.22 nM
IC50 [2]: 8.82 nM

CN(C)c1cc2nn([C@H]3CC[C@H](CN4CC[C@H](n5cc6cc(C7CCC(=O)NC7=O)c(F)cc6n5)[C@@H](F)C4)CC3)cc2cc1NC(=O)c1cnn2cccnc12 (some centres unmarked) [TM-134]
DC50 [1]: 3 nM
half-life at 1 µM [3]: 114 min
IC50 [4]: 2.59 nM

CN(C)c1cc2nn([C@H]3CC[C@H](CN4CC[C@@H](n5cc6cc(C7CCC(=O)NC7=O)c(F)cc6n5)[C@H](F)C4)CC3)cc2cc1NC(=O)c1cnn2cccnc12 (some centres unmarked) [TM-133]
DC50 [1]: 1.6 nM
half-life at 1 µM [3]: 107 min
IC50 [4]: 3.55 nM

CN(C)c1cc2nn([C@H]3CC[C@H](CN4CCC(n5cc6cc(F)c(C7CCC(=O)NC7=O)cc6n5)CC4)CC3)cc2cc1NC(=O)c1cnn2cccnc12 (some centres unmarked) [TM-6]
DC50 [1]: 0.7 nM
half-life at 1 µM [3]: 124 min
IC50 [4]: 1.15 nM

CN(C)c1cc2nn([C@H]3CC[C@H](CN4CC[C@H](n5cc6ccc(N7CCC(=O)NC7=O)cc6n5)C4)CC3)cc2cc1NC(=O)c1cnn2cccnc12 [TM-197]
DC50 [1]: 3.29 nM
IC50 [2]: 4.93 nM

CN(C)c1cc2nn([C@H]3CC[C@H](CN4CC[C@H](n5cc6cc(F)c(C7CCC(=O)NC7=O)cc6n5)[C@H](F)C4)CC3)cc2cc1NC(=O)c1cnn2cccnc12 (some centres unmarked) [TM-136]
DC50 [1]: 1.71 nM
half-life at 1 µM [3]: 101 min
IC50 [4]: 6.63 nM

CN(C)c1cc2nn([C@H]3CC[C@H](CN4CC[C@@H](n5cc6cc(F)c(C7CCC(=O)NC7=O)cc6n5)[C@H](F)C4)CC3)cc2cc1NC(=O)c1cnn2cccnc12 (some centres unmarked) [TM-137]
DC50 [1]: 9.41 nM
half-life at 1 µM [3]: 92.3 min
IC50 [4]: 2.4 nM

Deucravacitinib [TYKi, reference compound]
PASI Score d 6 ([5]; 30 mg/kg, BID): 4.32 ± 2.42
ΔSkin Thickness Change (μm) d 6 ([5]; 30 mg/kg, BID): 53.57 ± 15.87 μm

CN(C)c1cc2nn([C@H]3CC[C@H](CN4CCC[C@@H](n5cc6cc(N7CCC(=O)NC7=O)ccc6n5)C4)CC3)cc2cc1NC(=O)c1cnn2cccnc12 [TM-211]
DC50 [1]: 3.23 nM
IC50 [2]: 1.73 nM

CN(C)c1cc2nc([C@H]3CC[C@H](CN4C[C@@H](n5cc6cc(N7CCC(=O)NC7=O)ccc6n5)[C@@H](F)C4)CC3)cn2cc1NC(=O)c1cnn2cccnc12 [TM-230]
DC50 [1]: 1.42 nM
IC50 [2]: 6.97 nM

CN(C)c1cc2nn([C@H]3CC[C@H](CN4C[C@H](F)[C@@H](n5cc6cc(N7CCC(=O)NC7=O)ccc6n5)C4)CC3)cc2cc1NC(=O)c1cnn2cccnc12 [TM-207]
IC50 [4]: 40.9 nM
IC50 [2]: 10.3 nM

CN(C)c1cc2nc([C@H]3CC[C@H](CN4CCC(n5cc6c(F)cc(N7CCC(=O)NC7=O)cc6n5)CC4)CC3)cn2cc1NC(=O)c1cnn2cccnc12 [TM-231]
DC50 [1]: < 1 nM
IC50 [2]: 11.6 nM

CN(C)c1cc2nn([C@H]3CC[C@H](CN4C[C@@H](F)[C@@H](n5cc6ccc(N7CCC(=O)NC7=O)cc6n5)C4)CC3)cc2cc1NC(=O)c1cnn2cccnc12 [TM-202]
DC50 [1]: 0.95 nM
IC50 [2]: 3.61 nM

CN(C)c1cc2nn([C@H]3CC[C@H](CN4CCC(n5cc6cc(NC7CCC(=O)NC7=O)ccc6n5)CC4)CC3)cc2cc1NC(=O)c1cnn2cccnc12 (some centres unmarked) [TM-196]
DC50 [1]: 2.84 nM
IC50 [2]: 2.94 nM

CCC(=O)O[C@]1(C(=O)CCl)[C@@H](C)C[C@H]2[C@@H]3CCC4=CC(=O)C=C[C@]4(C)[C@@]3(F)[C@@H](O)C[C@@]21C [CLO, Clobetasol propionate, reference compound]
PASI Score d 6 ([5]; 160 mg/animal): 1.17 ± 0.85
ΔSkin Thickness Change (μm) d 6 ([5]; 160 mg/animal): −18.10 ± 6.33 μm

CN(C)c1cc2nn([C@H]3CC[C@H](CN4CC[C@@H](n5cc6ccc(N7CCC(=O)NC7=O)cc6n5)C4)CC3)cc2cc1NC(=O)c1cnn2cccnc12 [TM-198]
DC50 [1]: 0.86 nM
IC50 [2]: 20.8 nM

CN(C)c1cc2nn([C@H]3CC[C@H](CN4CC[C@@H](n5cc6cc(C7CCC(=O)NC7=O)ccc6n5)[C@H](F)C4)CC3)cc2cc1NC(=O)c1cnn2cccnc12 (some centres unmarked) [TM-167]
DC50 [1]: 1.17 nM
IC50 [2]: 4.3 nM

CN(C)c1cc2nn([C@H]3CC[C@H](CN4C[C@@H](n5cc6ccc(N7CCC(=O)NC7=O)cc6n5)[C@@H](F)C4)CC3)cc2cc1NC(=O)c1cnn2cccnc12 [TM-199]
DC50 [1]: 0.87 nM
IC50 [2]: 25.6 nM

CN(C)c1cc2nn([C@H]3CC[C@H](CN4CC[C@H](n5cc6cc(F)c(C7CCC(=O)NC7=O)cc6n5)[C@@H](F)C4)CC3)cc2cc1NC(=O)c1cnn2cccnc12 (some centres unmarked) [TM-138]
half-life at 1 µM [3]: 91 min
IC50 [4]: 6.96 nM

Cn1c(=O)n(C2CCC(=O)NC2=O)c2cccc(C#CCOC3CCN(C[C@H]4CC[C@H](n5cc(NC(=O)c6cnn7ccc(N8C[C@H]9C[C@@H]8CO9)nc67)c(C(F)F)n5)CC4)CC3)c21 (some centres unmarked) [Positive compound, reference compound]
IC50 [4]: 2.99 nM
IC50 [2]: 12.1 nM

CN(C)c1cc2nn(C3CCC(CN4C[C@@H](F)[C@H](n5cc6cc(N7CCC(=O)NC7=O)ccc6n5)C4)CC3)cc2cc1NC(=O)c1cnn2cccnc12 (some centres unmarked) [TM-208]
DC50 [1]: 3.77 nM
IC50 [2]: 10.8 nM
